What all share (format): binding
In assay [1] the target is T1, STAT5b SH2 domain (Homo sapiens, UniProt P51692).
T1 sequence (P51692 1-787): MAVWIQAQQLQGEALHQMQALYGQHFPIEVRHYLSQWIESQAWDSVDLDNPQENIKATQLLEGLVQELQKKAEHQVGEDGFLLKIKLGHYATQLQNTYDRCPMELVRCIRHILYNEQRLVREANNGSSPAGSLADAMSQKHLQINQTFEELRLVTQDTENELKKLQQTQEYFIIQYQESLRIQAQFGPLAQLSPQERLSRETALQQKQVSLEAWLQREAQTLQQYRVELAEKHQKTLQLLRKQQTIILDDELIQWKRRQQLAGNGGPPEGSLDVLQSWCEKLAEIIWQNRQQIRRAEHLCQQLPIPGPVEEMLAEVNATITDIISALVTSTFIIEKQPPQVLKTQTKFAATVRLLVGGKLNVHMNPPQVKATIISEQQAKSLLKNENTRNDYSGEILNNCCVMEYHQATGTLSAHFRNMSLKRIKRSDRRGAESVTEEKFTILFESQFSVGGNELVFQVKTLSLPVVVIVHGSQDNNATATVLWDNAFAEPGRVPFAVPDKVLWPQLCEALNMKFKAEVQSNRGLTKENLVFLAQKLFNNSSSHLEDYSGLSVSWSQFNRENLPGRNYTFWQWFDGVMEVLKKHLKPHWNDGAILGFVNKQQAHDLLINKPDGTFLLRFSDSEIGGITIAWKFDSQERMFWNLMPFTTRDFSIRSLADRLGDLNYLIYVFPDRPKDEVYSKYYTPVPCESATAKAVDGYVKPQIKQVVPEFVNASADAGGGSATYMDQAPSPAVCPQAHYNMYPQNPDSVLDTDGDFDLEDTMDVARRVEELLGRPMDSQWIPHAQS
As to the kind of experiment: Fluorescence polarization assay, STAT5b SH2 domain. For orientation: Polarisation of emitted light reports the rotation of a fluorescent probe.

For assay [2], the target named is T2, STAT5b Phe633Ala, Tyr665Ala (Homo sapiens, UniProt P51692, F633A/Y665A).
T2 sequence (P51692 1-787 F633A/Y665A): T1 sequence (P51692 1-787) with F633A, Y665A
As to the kind of experiment: Isothermal titration calorimetry, STAT5b Phe633Ala, Tyr665Ala double mutant. As to conditions: ITC, 25 °C, n = 3.

The target of assay [3] is T3, STAT4 (Homo sapiens, UniProt Q14765).
T3 sequence (Q14765 1-748): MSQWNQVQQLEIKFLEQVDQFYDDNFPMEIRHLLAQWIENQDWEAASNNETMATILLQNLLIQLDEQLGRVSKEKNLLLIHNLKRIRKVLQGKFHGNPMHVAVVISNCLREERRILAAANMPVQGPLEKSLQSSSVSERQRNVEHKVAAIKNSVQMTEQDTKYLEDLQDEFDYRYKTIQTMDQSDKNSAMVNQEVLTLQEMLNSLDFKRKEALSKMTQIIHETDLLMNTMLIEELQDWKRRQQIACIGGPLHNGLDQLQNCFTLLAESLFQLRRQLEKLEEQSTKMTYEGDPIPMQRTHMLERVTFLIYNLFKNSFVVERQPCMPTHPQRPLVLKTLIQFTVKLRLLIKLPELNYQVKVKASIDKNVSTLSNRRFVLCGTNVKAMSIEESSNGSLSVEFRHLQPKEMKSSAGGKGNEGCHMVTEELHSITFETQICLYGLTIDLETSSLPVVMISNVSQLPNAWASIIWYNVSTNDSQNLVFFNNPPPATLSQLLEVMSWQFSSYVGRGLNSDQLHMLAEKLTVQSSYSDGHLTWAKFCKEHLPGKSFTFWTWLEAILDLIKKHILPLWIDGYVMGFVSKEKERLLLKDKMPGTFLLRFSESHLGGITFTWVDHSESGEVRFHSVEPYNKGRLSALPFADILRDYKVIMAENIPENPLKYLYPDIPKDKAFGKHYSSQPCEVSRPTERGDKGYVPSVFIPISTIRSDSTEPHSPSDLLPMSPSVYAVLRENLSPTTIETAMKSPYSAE
As to the kind of experiment: Fluorescence polarization assay, STAT4.

Where a chain is given by its changes, count along the chain named.

For orientation: Ki means the equilibrium dissociation constant of an inhibitor or competing ligand from its target. The low end stands for higher affinity, the high end for lower affinity. Usually IC50 stands for the point on the concentration scale where inhibition reaches its midpoint. Read a high IC50 as lower potency. One may read the Kd as the equilibrium constant for the complex coming apart. A lower Kd goes with higher affinity. Turning to `O=C(COc1ccc(C(=O)Nc2ccc(Oc3ccccc3)cc2)cc1)NCc1ccc(OP(=O)(O)O)c(OP(=O)(O)O)c1` [compound 4, 4-((2-(4-((4-phenoxyphenyl)carbamoyl)phenoxy)acetamido)methyl)-1,2-phenylene bis(dihydrogen phosphate)], in assay [1] (STAT5b Ki), the “fold reduced Ki value relative to 2” value stood at 5 fold and the “fold reduction in Ki value relative to 3” value is recorded as “more than 10 fold”. In assay [1] (abstract, rounded), this compound displayed a Ki of 9 nM. Besides, the Ki in assay [1] (converted from IC50 using the published equation, mean ± s.d., n = 3) turned out to be 8.8 ± 0.3 nM. This compound gave a half-maximal inhibitory concentration (IC50) in assay [1] (fluorescence polarization, mean ± s.d., three independent experiments) of 82 ± 3 nM. Besides, in assay [2], binding was put at a Kd of 3800 ± 1700 nM, the ΔH is -5.1 ± 0.5 kcal/mol and the “−TΔS” value is -2.4 ± 0.3 kcal/mol. Moreover, half-maximal inhibition in assay [3] (IC50) was put at 9100 ± 300 nM.

Values taken from publication PMC5429769, “Rational development of Stafib-2: a selective, nanomolar inhibitor of the transcription factor STAT5b” (Scientific Reports, 2017).
